In patent US20250325684A1, “POTENT ANTI-CANCER CYCLOTIDES” (University of Southern California, priority 2022, published 2025):
“Also recorded” adds a separate entry of the source. Numbered stars: 1 amine (or outer) side, 2 acyl side, 3 side chain; on linkers, the order of the positions; unused ones are H or OH. Bridge positions count the residues as written; N and C are the ends. Square brackets hold non-standard residues; d marks the D form. Peptide text beside a SMILES is read from it. I, II: the chains in the order shown. X1 = O=C(CCc1cn(CCOCCOCCOCCC(=O)[*:2])nn1)[*:1]; isoGln = NC(=O)[C@H](CCC(=O)[*:2])N[*:1]

Assays:
[1] = test system: HCT116^−/−; assay: MTT cell viability, HCT116 p53-null cells; format: cell-based, human; conditions: HCT116^−/− colon carcinoma, p53 Null; MTT; read-out: EC50
Description: Cell viability assay in several human cancer cell lines (See Tables 1 to 10). Cell lines were cultured in RPMI 1640 (or recommended medium when indicated) medium supplemented with 10% fetal calf serum, penicillin (50 IU/mL) and streptomycin ([…]) at 37° C. in 5% CO2. Cell viability studies was carried using the MTT (3-(4,5-dimethylthiazol-2-yl)-2,5-diphenyltetrazolium bromide) assay as previously described (31). Briefly, ≈2×10^3 CRC cells were be seeded in 96-well microtiter plates in 100 μL RPMI 1640 in the presence of 10% calf serum. […] After 1 h, 210 μL/well of full complemented media was added, the cells were grown for 48 h and then treated with 20 μL of a solution of MTT (5 mg/mL) for 2 h. The medium was discarded and DMSO ([…]) was added to each well and incubated with gentle shaking for 20 min at room temperature. The absorbance at 595 nm of the solution is analyzed using a Tecan Genios Multifunctional Microplate Reader (Tecan System Inc) and the background at 670 nm subtracted. RNA-Seq analysis was performed using state-of-the-art bioinformatics tools. Briefly, raw RNA-Seq reads were mapped to human genome (hg38) using STAR aligner (v2.7.3a). Gencode Release 36 reference was used for annotation. Transcript and gene expression levels were quantified using the IsoEM (37) with default parameters. […]
Cell viability was evaluated using the MTT assay as described above.

[2] = test system: HCT116 xenografts; assay: HCT116 xenograft in nude mice; format: in vivo, mouse; conditions: two murine models of colorectal carcinoma
Description: Mice xenografts studies. HCT116 p53^−/− and CT26 xenografts were established by injecting 100 uL suspension of basal RPMI containing 0.5×10^6 cells into the rear right flanks of female nude mice (nu/nu) mice (HCT116) or Balb/C (CT26). When tumors reached an average volume of ≈100 mm^3, cohorts (n≥4) were treated with vehicle (5% dextrose in water, D5W), MCo-52-2-cTAT (40 mg/kg), or Nutlin-3 (20 mg/kg, […]) once daily for up to 38 days by intravenous injection (MCo-52-2-cTAT and vehicle) or by intraperitoneal administration (Nutlin-3) for HCT116 xenografts; or with vehicle (D5W), MCo-52-2-cTAT (25 mg/kg) three times per week by intraperitoneal injection. Compounds were prepared in a D5W at a final volume of 50 μL (peptide) or 100 μL (Nutlin-3). […] Individual weights were recorded thrice weekly, comparing the control and treatment groups as an additional indicator of tolerance of drug treatment as well as providing the average weight for calculation of drug dosing. Tumor size was measured with calipers. Tumor volume was calculated by measuring tumor size in two dimensions and applying those measurements to the calculation V=d^2×D/2, where d and D equal to the smaller and larger of the two measurements, respectively. […]

[3] = molecular target: T1, E3 ligase activity of Hdm2 (Homo sapiens, UniProt Q00987); assay: E3 ligase activity of Hdm2 on p53, commercial kit; format: biochemical; conditions: in vitro, Hdm2 around 1 μM (FIG. 4B)
T1 construct: purchased
T1 sequence (Q00987 whole entry): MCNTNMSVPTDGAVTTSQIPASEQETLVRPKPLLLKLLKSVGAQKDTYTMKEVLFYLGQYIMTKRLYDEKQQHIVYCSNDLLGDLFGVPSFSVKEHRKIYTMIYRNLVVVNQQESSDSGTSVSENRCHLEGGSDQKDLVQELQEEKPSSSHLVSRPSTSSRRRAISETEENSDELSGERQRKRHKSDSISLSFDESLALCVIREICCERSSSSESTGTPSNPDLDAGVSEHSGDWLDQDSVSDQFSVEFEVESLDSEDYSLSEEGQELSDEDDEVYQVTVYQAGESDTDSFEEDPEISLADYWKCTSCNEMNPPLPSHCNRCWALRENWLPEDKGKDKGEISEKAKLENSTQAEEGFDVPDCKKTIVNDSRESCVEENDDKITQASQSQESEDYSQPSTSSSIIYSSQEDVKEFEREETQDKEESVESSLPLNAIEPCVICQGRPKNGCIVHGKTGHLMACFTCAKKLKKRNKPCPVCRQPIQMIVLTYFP
Description: FIGS. 4A-4B: Structure and E3 ligase inhibitory activity of cyclotide MCo-52-2. (FIG. 4A) Structures of the heterodimer formed by the RINGs domain of Hdm2 and HdmX and the complex of cyclotide MCo-52-2 with the RING domain of HdmX, the interacting residues in loops 1 and 5 are shown in light grey (on the left). (FIG. 4B) Inhibitory E3 ligase activity of cyclotide of Hdm2 on p53. The concentration of Hdm2 in the assay was around 1 μM as provided in the commercial kit.
Cyclotide MCo-52-2-cTAT efficiently antagonizes the RING-mediated dimerization of Hdm2/HdmX inhibiting its E3 ligase activity. Applicant developed a cell-based screening of genetically-encoded libraries of cyclotides for Hdm2/HdmX antagonists that has allowed the selection of a bioactive cyclotide, MCo-52-2-cTAT. […] This cyclotide can be efficiently produced by chemical synthesis using solid-phase peptide synthesis (SPPS) or heterologous expression systems (28). Heterologous expression of cyclotides allows introduction of NMR-active isotopes, such as ^13C and ^15N to study the structure of this cyclotide and how interacts with the RING-domains of Hdm2 and HdmX. Using this approach, Applicant solved the structure of cyclotide MCo-52-2 complexed to the RING domain of HdmX in solution (FIG. 4A).

[4] = Immunogenicity, IgG titer ELISA in Balb/c mice; format: in vivo, mouse; conditions: intraperitoneal 25 mg/kg, 3 times per week for 28 days, listed as MCo-52-2-cTAT
Description: The ELISA assay was performed as follows. Micro microplate wells were coated with pmol of streptavidin and then blocked with a 5 solution of nonfat dry milk in PBS. Around of 150 pmol of the corresponding biotinylated antigen (MCo-52-2 or cTAT) were incubated with the streptavidin-coated wells. Murine IgG (m-IgG, 150 pmol) and PBS (no antigen) were used as positive and negative controls in the assay, respectively. Wells coated with antigens MCo-52-2 and cTAT were incubated with serial dilutions of sera from mice untreated and treated with cyclotide MCo-52-2-cTAT. The amount of murine IgG was detected using a goat HRP-conjugated anti-mouse IgG.

[5] = test system: p53 pathway in LNCaP cells; assay: Activation of the p53 pathway in LNCaP cells; format: cell-based, human
Description: Activation of the p53 pathway requires 6 to 8 h after exposing the cells to cyclotide MCo-52-2 for 1 h (FIG. 5B).
Stabilization of p53 could be observed just 8 h after treating the cells with the bioactive cyclotide (FIG. 5B), likely indicating the cyclotide crosses the cellular membrane into the cytosol through an endocytic mechanism as previously described for this type of microproteins (30, 31). […] These transcription factors (ATF3, FOXO3a and RUNX3) and kinases (DYRK2 and HIPK2) have been described to be regulated by the E3 ligase activity of Hdm2/HdmX (6). […] In both cases the peptide was able to inhibit tumor growth by 60% (HCT116-nude mice) and 80% (CT26-Balb/c mice) (FIG. 7).

Compound	EC50 [1] [µM]	p53 expression on tumor tissue (western blotting) [2]	Inhibition of the E3 ligase activity of Hdm2 [3]	Immunogenicity, IgG titer against the cyclotide [4]	Time until activation of the p53 pathway / stabilization of p53 ([5]; after exposing the cells to cyclotide for 1 h, listed as MCo-52-2-cTAT) [h]	Activation of the p53 pathway ([5]; wild type-p53, listed as MCo-52-2-cTAT)
N=C(N)NCCC[C@@H]1NC(=O)[C@@H](CCCNC(=N)N)NC(=O)[C@H](CCCCN)NC(=O)[C@@H](N)CCCCNC(=O)CC[C@@H](C(=O)O)NC(=O)[C@@H](CCCNC(=N)N)NC(=O)[C@H](CCCNC(=N)N)NC(=O)[C@@H](CCCCN)NC(=O)[C@H](CCCCN)NC(=O)[C@@H](CCCNC(=N)N)NC(=O)CNC(=O)[C@@H](CCCNC(=N)N)NC1=O [cTAT] (H-KK[dR]R[dR]G[dR]K[dK]R[dR]E-OH; lactam 1-12; N-terminus and C-terminus assumed)	> 100	–	–	–	–	–
I: cyclo(ACICRHDSYCGSGSDGGVCPNLYLLCRRDKDCPG) / II: KK[dR]R[dR]G[dR]K[dK]R[dR][isoGln] (disulfide I:2-I:19, I:4-I:26, I:10-I:32; linker I:30-II:N via X1; lactam II:1-II:C) [Cyclotide 52-2-cTAT]	–	stabilizes p53 expression on tumor tissue	specifically inhibit the E3 ligase activity of Hdm2 in vitro in a dose-dependent fashion	did not show any significant IgG titer; also recorded: little immunogenicity	8	activate the p53 pathway in wild type-p53 cancer cells (LNCaP) in a dose-dependent fashion; also recorded: activates the p53 pathway in LNCaP cells in a dose-dependent fashion
